{"source": "patent US10093712B2", "about": "“Immunostimulatory compositions and uses thereof” (Susavion Biosciences, Inc., priority 2004, dated 2018)", "key": {"[1]": {"tested_on": "adherent peripheral blood cells", "experiment": "Oxidative burst of adherent peripheral blood cells, change in absorbance of cytochrome c after PMA", "type": "cell-based", "procedure": "FIG. 7. Response of adherent peripheral blood cells to mimetic peptides. Reduction of cytochrome c by superoxide anion radical is indicated by an increase in absorbance (OD), whereas a loss of absorbance indicates destruction of the cytochrome. (A) Total adherent cells from 300 μl of blood were assayed. Samples 1 and 2 contained 5 nM and 2.5 nM branched mimetic peptide, respectively. Samples 3 and 4 contained 5 nM and 2.5 nM linear mimetic peptide, respectively. Sample 5 contained 50 ng/ml lipopolysaccharide (weight equivalent to 6 nM peptide). Sample 6, untreated control cells. (B) Adherent cells were scraped from the surface and 1×10^5 cells were placed in each well. The assay was performed as in (A). Samples 1 and 2 contained 10 nM and 5 nM mimetic peptide, respectively. Samples 3 and 4 contained 10 nM and 5 nM linear peptide, respectively. Sample 5 contained 50 ng/ml lipopolysaccharide. Sample 6, untreated control cells.\n(§1) Oxidative burst: Peripheral blood samples were removed from animals and 300 μl added to wells of a 96-well microtiter plate and incubated overnight at 38° C. in a standard CO2-incubator. The nonadherent cells, including erythrocytes, and serum were removed and centrifuged to pellet cells and obtain cell-free serum. RPMI 1640 medium containing 2 to 10% serum from the same animal were added to each well and incubation of the culture is continued for various periods of time. The polypeptide mimetic was then added to a concentration of 1 to 10 nM and incubation continued for 3 h.\nOne type of assay of cellular activity measures the response of adherent cells to the polypeptide mimetic by the change in absorbance of cytochrome c (Johnston et al., 1978; Pick and Mizel, 1981). Phorbol 12-myristate 13-acetate (PMA) was added to 140 nM and then cytochrome c was added to 15 μM. Change in absorbance was monitored continuously at 550 nm over 20 min. With 300 μl in each well, reduction of cytochrome c was calculated as: Δnanomoles=absorbance at 550 nm×100/2.1 (Pick and Mizel, 1981). Positive control samples were run with lipopolysaccharide, a known stimulator of macrophage activity. Negative controls lack stimulant.\nThe oxidative burst upon addition of PMA involves production of the superoxide anion radical. The superoxide anion radical is a strong reducing agent and reduces cytochrome c, which is detected by an increase in absorbance of the sample. Additionally, these cells produce the nitric oxide radical, which reacts with superoxide anion radical at diffusion-limited rates to produce the strong oxidant, peroxynitrite anion (Ischiropoulos et al., 1992). These strong oxidants apparently cause loss of absorbance of the cytochrome.\nWithout treatment with the polypeptide, again no change in absorbance of the cytochrome was detected."}, "[2]": {"tested_on": "adherent macrophages or neutrophils from canine peripheral blood", "experiment": "Phagocytosis of fluorescent polystyrene beads", "type": "cell-based", "conditions": "3.4 nM (25 ng/ml)", "procedure": "(§2) Phagocytosis: Phagocytosis was measured by the uptake of fluorescently-labeled bacterial cells (Molecular Probes, Inc.) or fluorescent polystyrene beads (Polyscience, Inc). Phagocytosis can be quantitated by quenching extracellular (unphagocytized) bacterial cells by addition of the dye trypan blue to the suspension and measuring the remaining (intracellular) fluorescence (Wan et al., 1993).\nPhagocytosis of polystyrene beads: Peripheral blood from the canines was added to confocal dishes and incubated over night to allow macrophage adherence. The cells were washed away with PBS, HBSS, or RPMI. Only adherent macrophages or neutrophils remained on the glass surface and were left to incubate in the above mentioned buffers. Polypeptide was then added at 3.4 nM (25 ng/ml) for a 5-hour incubation. At this point, beads were added for a 10-minute incubation. All incubations were done in 37° C. with 5% CO2."}, "[3]": {"tested_on": "peripheral blood adherent cells", "experiment": "Pyrogallol oxidation initiated by superoxide anion radical from peripheral blood adherent cells", "type": "cell-based", "conditions": "3.4, 1.7 or 0.7 nM versus 50 ng/ml lipopolysaccharide, FIG. 8", "procedure": "FIG. 8. Assay of pyrogallol oxidation initiated by superoxide anion radical generation by peripheral blood adherent cells treated with stimulants. Samples 1, 2, and 3, contained 3.4, 1.7 or 0.7 nM (25, 12.5 or 5 ng/ml) of the branched mimetic, respectively. Sample 4 contained 50 ng/ml lipopolysaccharide. Sample 5, untreated control cells.\nas §1\nThe response of cells to the polypeptide was also assayed by oxidation of pyrogallol (Marldund and Marklund, 1974) in a reaction initiated by superoxide anion radical (FIG. 8)."}, "[4]": {"conditions": "pH 7.4", "description": "The product was dried and then dissolved in sterile phosphate buffered saline, pH 7.4."}, "[5]": {"tested_on": "recurring, advanced cancer", "conditions": "for quality of life: canine cancer patients, subjective; for tumor load / size of the primary tumor: several patients / some cases", "procedure": "Owners of dogs that were used to obtain preliminary data were required to sign informed consent and agreement to necropsy forms. Dogs with histologically or cytologically confirmed cancer were given the polypeptide mimetic at doses of 100 to 1,500µg by weekly perfusion into the blood or subcutaneously 3 times per week. The effective dose of the glycopeptide used by Schneider et al. (2003) was 0.4 ng/g body weight given every other day. On this basis, a minimal weekly dose should be 1.4 ng/g body weight. For a large animal (80 lb or 36 kg dog), the starting, minimal-effective, weekly dose of the synthetic mimetic polypeptide would therefore be 50µg or 6.8 nmoles. For initial studies, the mimetic polypeptide (FIG. 4) was administered at a 20-fold higher dose."}, "[6]": {"tested_on": "canine peripheral blood macrophages", "experiment": "Phagocytosis of fluorescently labeled bacterial cells, trypan blue quench, microscopy", "type": "cell-based", "conditions": "for phagocytosis of bacterial cells: then bacterial cells 10 minutes", "procedure": "FIG. 9. Microscopic analysis of phagocytosis of fluorescently labeled bacterial cells by adherent cells from canine peripheral blood samples. […] The sample was treated 15 h with 5 nM branched peptide mimetic and then incubated with fluorescently-labeled bacterial cells for 10 min. Fluorescence of bacterial cells that remained extracellular was quenched with trypan blue. […] The samples were not treated with the peptide mimetic, and most of the cells, as in (D) were not fluorescent. A very low level of fluorescence, evidence of low phagocytic activity, was occasionally seen, as shown in (C). Gain was set to maximize detection of fluorescence. Such control samples show the highest level of phagocytosis of bacterial that we have observed. In many experiments, control cells show no fluorescence.\nas §2\nIn one experiment, canine peripheral blood macrophages were treated for 15 hours with 5 nM branched polypeptide (FIG. 4), and then incubated with bacterial cells for 10 minutes, followed by microscopic analysis. Fluorescence of bacterial cells that remained extracellular was quenched with trypan blue. […] (See FIG. 9)\nIn another experiment, adherent canine peripheral blood cells were treated for 5 hours with 10 nM branched polypeptide (FIG. 4) and then washed. Fluorescent bacterial cells were added, and after 10 minutes, trypan blue was added to quench extracellular bacterial cells. Cells were examined by light microscopy and then by fluorescent microscopy. Contrast in the fluorescent images was maximized to detect any fluorescence in control samples. […] Treated and control samples were from the same dog."}}, "note": "Like-named read-outs stand apart in the source and are kept apart here. Where no end group is shown, it is not given here."}
{"substance": "[(VQATQSNQHTPRGGGS)2K]2K.beta.AC (not fully specified (C-terminus); printed as [(VQATQSNQHTPRGGGS)2K]2K.beta.AC; also: four-branch lysine core [(seq)2K]2K, betaAla-Cys on core) [branched polypeptide mimetic]", "values": [{"measurement": "oxidative burst response compared with linear polypeptide", "setting": "[1]; FIG. 7", "result": "stronger response than the linear polypeptide"}, {"measurement": "change in absorbance of cytochrome c", "setting": "[1]; higher concentrations of polypeptide (5 to 10 nM), FIG. 7A", "result": "rapid loss of absorbance"}, {"measurement": "change in absorbance of cytochrome c", "setting": "[1]; low concentrations of mimetic polypeptide (1 nM), PMA 140 nM, cytochrome c 15 μM, 550 nm", "result": "increase in absorbance of cytochrome c"}, {"measurement": "rate of reduction of cytochrome c", "setting": "[1]; lowered cell number (1×10^5 cells per well), FIG. 7B", "result": "correlated with the amount of polypeptide mimetic added"}, {"measurement": "oxidative burst response compared with lipopolysaccharide", "setting": "[1]; on an equal weight basis", "result": "even stronger than to lipopolysaccharide"}, {"measurement": "detachment of neutrophils from the surface", "setting": "[2]", "result": "induced detachment of neutrophils from the surface"}, {"measurement": "phagocytosis of polystyrene beads", "setting": "[2]; 5-hour incubation, 10 to 30 minutes after bead addition", "result": "presence of the beads within cells"}, {"measurement": "oxidation of pyrogallol, activity as stimulant", "setting": "[3]", "result": "most active stimulant"}, {"measurement": "stability of the product", "setting": "[4]", "result": "at least 3 months"}, {"measurement": "quality of life", "setting": "[5]; listed as branched peptide mimetic", "result": "dramatic improvement in quality of life"}, {"measurement": "quality of life", "setting": "[5]; listed as polypeptide", "result": "remarkable extension and improvement in the quality of life"}, {"measurement": "quality of life", "setting": "[5]; listed as polypeptide mimetic", "result": "dramatically enhanced"}, {"measurement": "survival on the treatment", "setting": "[5]; several animals, advanced cancer", "result": "≥ 6", "unit": "months"}, {"measurement": "extension of life", "setting": "[5]; several canine patients with advanced cancer", "result": "extension of life beyond what would be normally expected"}, {"measurement": "behavior", "setting": "[5]; several patients", "result": "restored to pre-disease activities"}, {"measurement": "tumor load / size of the primary tumor", "setting": "[5]; listed as polypeptide", "result": "reduction in size of the primary tumor"}, {"measurement": "tumor load / size of the primary tumor", "setting": "[5]; listed as polypeptide mimetic", "result": "reduction in tumor load was detected"}, {"measurement": "phagocytosis of bacterial cells", "setting": "[6]; 5 nM for 15 hours", "result": "dramatically increased phagocytosis"}, {"measurement": "attachment of neutrophils", "setting": "[6]; 10 nM for 5 hours", "result": "more of the smaller neutrophils become attached"}, {"measurement": "phagocytosis of bacterial cells", "setting": "[6]; 10 nM for 5 hours", "result": "dramatically increased phagocytosis"}]}
{"substance": "lipopolysaccharide [reference compound]", "values": [{"measurement": "change in absorbance of cytochrome c", "setting": "[1]; lipopolysaccharide positive control", "result": "increase in absorbance of cytochrome c"}]}
